pIC50: −log10 of the molar value. Where two headings read alike, the source gives them in different places.
Columns and labels:
[1] = target: T1, tankyrase 1 (TNKS 1) (Homo sapiens, UniProt O95271); assay: Tankyrase inhibitory activity test (ELISA, self-polyADP ribosylation), tankyrase 1; assay type: biochemical; conditions: self-polyADP ribosylation
T1 construct: 1,024-1,327aa; made in house; host or cells: cell-free protein synthesis system
Method in brief: (§1)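 IC50 was fitted to residual self-polyADP-ribosylation activity, detected by HRP-streptavidin chemiluminescence. Plate-bound Flag fusions (TNKS1 1,024-1,327aa SAM+PARP; TNKS2 613-1,116aa ANK5+SAM+PARP, cell-free synthesized) saw compound for 10 min at room temperature in 50 mM Tris-HCl pH 8.0, 4 mM MgCl2, 0.2 mM DTT. Reaction with 225 μM NAD/25 μM 6-biotin-17-NAD solution ran 45 min at 30 °C.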

[2] = tested on: human colorectal cancer cell line, COLO-320DM; assay: Cell proliferation inhibitory activity test (Celltiter-Glo Luminescent Cell Viability Assay); assay type: cell-based; conditions: COLO-320DM cells, 96 hours
Method in brief: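 GI50 is taken as the concentration halving cell growth versus 1% DMSO control, measured by ATP luminescence. Compound exposure lasted 96 h at 37° C. under 5% CO2, after overnight seeding in RPMI-1640 with 10% FBS and 2 mM glutamine.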

[3] = target: T2, tankyrase 2 (TNKS 2) (Homo sapiens, UniProt Q9H2K2); assay: Tankyrase inhibitory activity test (ELISA, self-polyADP ribosylation), tankyrase 2; assay type: biochemical; conditions: self-polyADP ribosylation
T2 construct: 613-1, 116aa; made in house; host or cells: cell-free protein synthesis system
Method in brief: as §1

[4] = ELISA, class symbols, read-out: TNKS1 (inhibitory activity against tankyrase 1, IC50 value)
[5] = class symbols, read-out: COLO-320 DM (cell proliferation inhibitory activity, GI50 value)
[6] = ELISA, class symbols, read-out: TNKS2 (inhibitory activity against tankyrase 2, IC50 value)
[7] = tankyrase 1, ELISA, read-out: TNKS1 inhibitory activity (IC50 class)
[8] = read-out: COLO-320 DM cell proliferation inhibitory activity (GI50 class)
[9] = tankyrase 2, ELISA, read-out: TNKS2 inhibitory activity (IC50 class)

T2 sequence (Q9H2K2 613-1166): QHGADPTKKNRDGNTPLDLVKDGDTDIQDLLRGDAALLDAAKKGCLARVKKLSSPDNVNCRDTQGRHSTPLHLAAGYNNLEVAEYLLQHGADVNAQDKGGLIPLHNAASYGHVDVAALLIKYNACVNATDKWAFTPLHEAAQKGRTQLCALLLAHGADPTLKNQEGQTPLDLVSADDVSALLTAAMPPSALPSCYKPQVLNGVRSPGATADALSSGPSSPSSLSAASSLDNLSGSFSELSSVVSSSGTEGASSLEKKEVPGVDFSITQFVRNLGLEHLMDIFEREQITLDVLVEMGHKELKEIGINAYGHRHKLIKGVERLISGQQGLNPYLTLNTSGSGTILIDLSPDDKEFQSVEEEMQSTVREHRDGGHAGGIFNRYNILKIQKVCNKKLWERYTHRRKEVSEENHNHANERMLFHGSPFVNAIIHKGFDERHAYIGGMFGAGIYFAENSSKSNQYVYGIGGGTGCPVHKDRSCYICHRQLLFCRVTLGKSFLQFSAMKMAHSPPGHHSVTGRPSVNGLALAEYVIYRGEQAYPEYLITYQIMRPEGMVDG
T1 sequence (O95271 1024-1327): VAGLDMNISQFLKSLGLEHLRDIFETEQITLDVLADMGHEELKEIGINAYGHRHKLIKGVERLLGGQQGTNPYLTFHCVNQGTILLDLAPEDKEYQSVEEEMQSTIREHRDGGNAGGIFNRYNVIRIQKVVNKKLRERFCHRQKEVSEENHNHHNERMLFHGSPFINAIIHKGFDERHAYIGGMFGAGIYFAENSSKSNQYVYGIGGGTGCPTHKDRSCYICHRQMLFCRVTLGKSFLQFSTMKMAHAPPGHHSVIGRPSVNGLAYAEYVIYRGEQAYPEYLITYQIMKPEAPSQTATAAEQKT

Compound	pIC50 [1, 4]	GI50 [2, 5] [nM]	pIC50 [3, 6]	pIC50 [1, 7]	GI50 [2, 8] [nM]	pIC50 [3, 9]
CN1CCCc2c1nc(N1CCC3(CC1)C(=O)N(CC(F)(F)F)c1cc(OCCN4CCCC4)cc(F)c13)[nH]c2=O [Example 404, 4-fluoro-1′-(8-methyl-4-oxo-3,4,5,6,7,8-hexa hydropyrido [2,3-d]pyrimidin-2-yl)-6-[2-(pyrroli-din-1-yl)ethoxy]-1-(2,2,2-trifluoroethyl) spiro [indoline-3,4′-piperidin]-2(1H)-one]	6.70 to 7.70	600 to 1000	6.70 to 7.70	–	–	–
CN1CCCc2c1nc(N1CCC3(CC1)C(=O)N(C)c1cc(N4CCNCC4)cc(F)c13)[nH]c2=O [Example 457, 4-fluoro-1-methyl-1′-(8-methyl-4-oxo-3,4,5,6,7,8-hexahydropyrido [2,3-d]pyrimidin-2-yl)-6-piperazin-1-yl-spiro[indole-3,4′-piperidine]-2(1H)-one]	6.70 to 7.70	600 to 1000	6.70 to 7.70	–	–	–
CN1CCCc2c1nc(N1CCC3(CC1)C(=O)N(C)c1cc(N4CCS(=O)(=O)CC4)cc(F)c13)[nH]c2=O [Example 455, 6-(1,1-dioxdothio-morpholino)-4-fluoro-1-methyl-1′-(8-methyl-4-oxo-3,4,5,6,7,8-hexa-hydropyrido[2,3-d]pyrimidin-2-yl)spiro [indole-3,4′-piperi-dine]-2-one]	> 7.70	100 to 600	> 7.70	–	–	–
CN1CCN(c2cc(F)c3c(c2)N(C)C(=O)C32CCN(c3nc4c(c(=O)[nH]3)CCCN4C)CC2)CC1 [Example 387, 4-fluoro-1-methyl-1′-(8-methyl-4-oxo-3,4,5,6,7,8-hexahydropyrido [2,3-d]pyrimidin-2-yl)-6-(4-methylpiperazin-1-yl)spiro [indoline-3,4′-piperidin]-2-one]	–	–	–	> 7.70	< 100	> 7.70
O=c1[nH]c(N2CCC3(CC2)CN(Cc2ccncc2)c2cc(F)cc(F)c23)nc2c1CCCC2 [Example 254, 2-[4,6-difluoro-1-(pyridin-4-yl)methyl-spiro[indoline-3,4′-piperidin]-1′-yl]-5,6,7,8-tetrahydro-quinazolin-4(3H)-one]	–	–	–	> 7.70	100 to 600	> 7.70
CC(C)(O)CN1C(=O)C2(CCN(c3nc4c(c(=O)[nH]3)CCCN4)CC2)c2c(F)cccc21 [Example 452, 4-fluoro-1-(2-hy-droxy-2-methyl-propyl)-1′-(4-hydroxy-5,6,7,8-tetra-hydropyrido[2,3-d]pyrimidin-2-yl)spiro [indole-3,4′-piper-idine]-2-one]	6.70 to 7.70	100 to 600	> 7.70	–	–	–
O=c1[nH]c(N2CCC3(CC2)CN(Cc2ccc(Cl)nc2)c2cc(F)cc(F)c23)nc2c1CCCC2 [Example 344, 2-{1-[(6-chloropyridin-3-yl)methyl]-4,6-di-fluorospiro[indoline-3,4′-piperidin]-1′-yl]-5,6,7,8-tetrahydroquin-azolin-4(3H)-one]	–	–	–	> 7.70	100 to 600	> 7.70
COc1ccc(Cl)c2c1N(CCN1CCN(C(C)=O)CC1)C(=O)C21CCN(c2nc3c(c(=O)[nH]2)CCCN3C)CC1 [Example 441, 1-[2-(4-acetylpiper-azin-1-yl)ethyl]-4-chloro-1′-(4-hy-droxy-8-methyl-6,7-dihydro-5H-py-rido[2,3-d]pyrimi-din-2-yl)-7-methoxy-spiro[indole-3,4′-piperidine]-2-one]	6.70 to 7.70	100 to 600	> 7.70	–	–	–
CN1CCCc2c1nc(N1CCC3(CC1)C(=O)N(CCO)c1cc(O)cc(F)c13)[nH]c2=O [Example 384, 4-fluoro-6-hydroxy-1-(2-hydroxyethyl)-1′-(8-methyl-4-oxo-3,4,5,6,7,8-hexahydropyrido [2,3-d]pyrimidin-2-yl) spiro[indoline-3,4′-piperidin]-2-one]	–	–	–	> 7.70	100 to 600	> 7.70
CN1CCCc2c1nc(N1CCC3(CC1)C(=O)N(C)c1cc(N4CCN(C(N)=O)CC4)cc(F)c13)[nH]c2=O [Example 466, 4-[4-fluoro-1-methyl-1′-(8-methyl-4-oxo-3,4,5,6,7,8-hexahydropyrido[2,3-d]pyrimidin-2-yl)-2-oxospiro[indole-3,4′-piperidine]-6-yl]piperazine-1-carboxamide]	6.70 to 7.70	600 to 1000	> 7.70	–	–	–
O=C1N(Cc2cccnc2)c2cc(F)cc(F)c2C12CCN(c1nc3c(c(=O)[nH]1)CCCC3)CC2 [Example 333, 4,6-difluoro-1′-(4-oxo-3,4,5,6,7,8-hexahydro-quinazolin-2-yl)-1-(pyridin-3-ylmethyl) spiro[indoline-3,4′-piperidin]-2-one]	–	–	–	> 7.70	100 to 600	> 7.70
C[C@@H]1CN(c2cc(F)c3c(c2)N(CC(F)(F)F)C(=O)C32CCN(c3nc4c(c(=O)[nH]3)CCCN4C)CC2)C[C@H](C)N1 [Example 417, 6-(cis-3,5-dimethyl-piperazin-1-yl)-4-fluoro-1′-(8-methyl-4-oxo-3,4,5,6,7,8-hexahydropyrido[2,3-d]pyrimidin-2-yl)-1-(2,2,2-trifluoroethyl) spiro[indoline-3,4′-piperidin]-2-one]	> 7.70	600 to 1000	> 7.70	–	–	–
O=c1[nH]c(N2CCC3(CC2)CN(Cc2cccc(F)c2)c2cc(F)cc(F)c23)nc2c1CCCC2 [Example 342, 2-[4,6-difluoro-1-(3-fluorobenzyl)spiro [indoline-3,4′-piperidin]-1′-yl]-5,6,7,8-tetrahy-droquinazolin-4(3H)-one]	–	–	–	6.70 to 7.70	600 to 1000	> 7.70
CN1CCCc2c1nc(N1CCC3(CC1)C(=O)N(C)c1c(OCC4CCNCC4)ccc(F)c13)[nH]c2=O [Example 421, 4-fluoro-1′-(4-hydroxy-8-methyl-6,7-dihydro-5H-pyrido[2,3-d]pyrimidin-2-yl)-1-meth-yl-7-(piperidin-4-yl-methoxy)spiro[indole-3,4′-piperidin]-2-one]	> 7.70	100 to 600	> 7.70	–	–	–
CC1CN(c2cc(F)c3c(c2)C(=O)OC32CCN(c3nc4c(c(=O)[nH]3)CCCN4)CC2)CC(C)O1 (stereo not drawn) [Example 472, 6-(2,6-dimethylmorpholin-4-yl)-4-fluoro-1′-(4-hydroxy-5,6,7,8-tetrahydropyrido[2,3-d]pyrimidin-2-yl) spiro[2-benzofuran-3,4′-piperidin]-1-one]	> 7.70	600 to 1000	> 7.70	–	–	–
O=c1[nH]c(N2CCC3(CC2)CN(Cc2ccccc2F)c2cc(F)cc(F)c23)nc2c1CCCC2 [Example 341, 2-[4,6-difluoro-1-(2-fluorobenzyl)spiro [indoline-3,4′-piperidin]-1′-yl]-5,6,7,8-tetrahy-droquinazolin-4(3H)-one]	–	–	–	6.70 to 7.70	600 to 1000	6.70 to 7.70
Cn1ccc2c(=O)[nH]c(N3CCC4(CC3)CN(Cc3cccnc3)c3cc(F)cc(F)c34)nc21 [Example 347, 2-[4,6-difluoro-1-(pyridin-3-ylmethyl)spiro [indoline-3,4′-piperidine]-1′-yl]-7-methyl-3,7-dihydro-4H-pyrrolo [2,3-d]pyrimidin-4-one]	–	–	–	6.70 to 7.70	600 to 1000	6.70 to 7.70

Reference: patent US11414429B2, “Compound or pharmaceutically acceptable salt thereof” (RIKEN, priority 2016, dated 2022)
